Measured values reported in patent US10420751B2, “Methods of treating inflammatory bowel disease with AMD3100 and tacrolimus” (priority 2009, dated 2019).
Read-outs that look alike come from different tables or passages of the source.

Legend:
CXCR4 chomokin receptor = CXCR4 chomokin receptor (Homo sapiens, UniProt P61073); settings: Peled et al.; read-out: IC50, binds and inhibits CXCR4; cited from earlier work
[1] = test system: CD34+, c-Kit+, Thy-1+ and Sca1+ cells in peripheral blood; settings: after liver transplantation, compared to control animals, AMD3100 1 mg/kg/day s.c.
Description: Single-cell suspensions (5×10^5) of peripheral blood monocytes were analyzed for CD34, CXCR4, c-Kit, Thy-1, and Sea-1 expression. Nonspecific antibody binding was blocked with goat and rat serum (Sigma) for 30 minutes.

[2] = test system: liver allografts (DA into GFP-Lewis rats); test: Histology (H&E), GFP microscopy and Xenogen imaging of small liver allografts; format: in vivo, rat; settings: liver allografts 7 days after transplantation, versus control group
Description: Transplanted rats were divided by four groups: (1) control group (treated with same volume of saline); (2) low dose of immunosuppressant (FK-506, 0.1 mg/kg/day); (3) stem cell mobilizer (AMD3100, 1 mg/kg/day); and (4) combination of low dose FK-506 and AMD3100. AMD3100 and/or FK-506 were injected subcutaneously immediately after reperfusion and day 1, 2, 3 and 7 following liver transplantation (FIG. 1). Some of the animals were sacrificed at day 3, 7 and 10 after transplantation and liver tissue, spleen and peripheral blood were collected.
Histological changes in liver tissue sections were evaluated by H&E staining. Recipient-derived GFP positive cells in liver tissue sections were analyzed by confocal fluorescence microscopy.
GFP whole-organ fluorescence was measured using the Xenogen system.

[3] = test system: c-Kit+, CD133+, Lin− Thy1+c-Kit+CD133+ cells in peripheral blood; test: Mobilization of stem cells into peripheral blood (CBC and flow cytometry); format: in vivo, rat; settings: 3 hours after injection
Description: Single-cell suspensions (5×10^5) of peripheral blood monocytes were analyzed for lineage negative CD34, CD133, Thy1, and c-Kit expression. Nonspecific antibody binding was blocked with goat and rat serum (Sigma) for 30 minutes. Peripheral blood cells were isolated from animals at 3 hours after injection with AMD and/or FK. Complete blood count (CBC) was measured and stem cell markers were quantified by flow cytometry. The absolute number of stem cells was calculated as WBC (-thous./μL)×% of stem cells.

[4] = test system: kidney allograft (DA to Lewis); test: Orthotopic kidney transplantation, acute rejection model: survival; format: in vivo, rat; settings: FK 0.05 mg/kg and/or AMD 1 mg/kg s.c.; controls rejected within 10 days
Description: Specifically, the DA to Lewis model of acute rejection was studied. Briefly, donor kidneys obtained from male DA rats were flushed with 10 ml cold saline and were stored at 4° C. while the recipient to be prepared. Total cold ischemic time was no longer than 40 minutes. Lewis male recipients were transplanted following left native nephrectomy. The donor renal artery, vein and ureter were anastomosed to the recipient renal artery, vein and ureter. The anastomosis was completed using 10-0 silk sutures. The right native kidney was removed before closing the abdomen.
AMD3100 were injected subcutaneously immediately after reperfusion (day 0) and day 2, 4 and 6 following kidney transplantation. […] Treatments were repeated in combination treated group at 1, 2 and 3 months after transplantation. Some of animals were sacrificed at day 7 and 30 after transplantation and kidney tissue, spleen and peripheral blood were collected.

[5] = test system: skin xenograft (C57/B6 mice into Lewis rats); test: Skin xenograft survival, mouse into rat; format: in vivo; settings: FK 0.1 mg/kg and/or AMD 1 mg/kg
[6] = test system: cell migration stimulated by CXCL12; settings: Peled et al.; cited from earlier work
[7] = test system: skin allograft (DA into Lewis); test: Skin allograft survival; settings: FK 0.1 mg/kg and/or AMD 1 mg/kg; controls rejected within 7 days
Description: DA rats or C57/B6 mice were used as skin donors and GFP transgenic Lewis rats were used as recipients. A graft bed (2.5×3 cm) was prepared on the back of a recipient rat; special care was given to preserving the panniculus carnosus. A 2.5×3 cm^2 graft, which had been prepared from the body trunk of a donor, was transplanted with interrupted sutures of 5-0 silk. The graft was covered with a protective tape and the first inspection was conducted 2 days after skin grafting and was followed by daily inspection. The rejection was defined as the day when the skin graft developed a red-brown color and hard consistency.
FK506 were injected subcutaneously every day following transplantation.

[8] = test system: whole liver allograft (DA into Lewis rats); test: Whole liver transplantation, rejection model: survival; settings: s.c. day 0,1,2,3,7,10,15, controls rejected within twelve days
Description: In whole liver transplantation rats, plerixafor and/or tacrolimus were injected subcutaneously immediately after reperfusion and on days 1, 2, 3, 7, 10 and 15 following transplantation.

[9] = test system: small liver allograft (DA into Lewis rats); test: Small liver transplantation, acute rejection model: survival; settings: for recipient survival / liver allograft acceptance: small liver DA into Lewis, FK-506 0.1 mg/kg/day and/or AMD3100 1 mg/kg/day s.c. day 0,1,2,3,7, controls rejected within 12 days; for survival of one of five recipients: small liver, low dose FK-506 0.1 mg/kg/day alone
Description: Orthotopic liver transplantation (OLT) was performed under isoflurane (Abbott laboratories, North Chicago, Ill.) inhalation anesthesia according to a method modified from previously described. Small liver transplantation consisted of removal of the left lateral lobe, the left portion of the median lobe, and the anterior and posterior caudate lobes. This reduced the liver mass by about 50%. The livers were flushed in situ with 10 ml cold saline via the portal vein, explanted and immersed in cold saline solution. The host liver was excised by ligation and division of the right adrenal and lumbar veins. The hepatic artery was ligated and divided. The bile duct was cannulated by insertion of a tube 2 mm in length (outer diameter, 1.2 mm) via choledocotomy and secured with a circumferential 8-0 silk suture. […] The suprahepatic vena cava was pulled down using a cotton tape passed around the host liver and cross-clamped with a baby Statinksy clamp. The vessels were divided and liver was removed. The donor suprahepatic vena cava was anstomosed end-to-end with the host suprahepatic vena cava with running 8-0 prolene. The portal vein and infra hepatic vena cava were anastomosed using the cuff technique described previously. The common bile duct of the donor was cannulated with the small tube residing in the host bile duct and tied in place. The hepatic artery was not reconstructed.
Some of the animals were sacrificed at day 3, 7 and 10 after transplantation and liver tissue, spleen and peripheral blood were collected.
To test this hypothesis, liver transplants from dark agouti (DA) rats into Lewis rats, i.e. the rejection model were performed. Recipient rats were treated with a hematopoietic stem cell mobilizer (plerixafor) and/or low dose immunosuppressant (tacrolimus). Transplanted rats were divided into four groups: 1) a control group treated with saline), 2) treatment with low dose immunosuppressant (tacrolimus, 0.1 mg/kg/day), 3) stem cell mobilizer (plerixafor (AMD3100), 1 mg/kg/day) alone, or 4) a combination of low dose tacrolimus and plerixafor.
In small liver transplantation rats, plerixafor and/or tacrolimus were injected subcutaneously immediately after reperfusion and on days 1, 2, 3 and 7 following transplantation. In whole liver transplantation rats, plerixafor and/or tacrolimus were injected subcutaneously immediately after reperfusion and on days 1, 2, 3, 7, 10 and 15 following transplantation. Animals from each group were sacrificed on post-op days 3, 7 and 10 and liver tissue, spleen and peripheral blood were collected.

Sequence of CXCR4 chomokin receptor (P61073 whole entry): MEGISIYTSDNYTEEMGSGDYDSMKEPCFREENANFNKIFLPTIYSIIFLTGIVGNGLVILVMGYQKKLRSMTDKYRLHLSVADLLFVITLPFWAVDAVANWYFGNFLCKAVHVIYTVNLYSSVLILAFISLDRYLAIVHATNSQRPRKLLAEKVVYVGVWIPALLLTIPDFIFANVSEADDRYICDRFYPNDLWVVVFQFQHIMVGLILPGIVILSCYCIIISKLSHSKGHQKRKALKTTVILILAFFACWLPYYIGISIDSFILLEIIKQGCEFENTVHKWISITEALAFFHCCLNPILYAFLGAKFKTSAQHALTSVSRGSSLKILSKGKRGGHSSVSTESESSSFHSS

4F-benzoyl-TN14003 [BKT140]
IC50 (CXCR4 chomokin receptor): ~1 nM

c1cc(CN2CCCNCCNCCCNCC2)ccc1CN1CCCNCCNCCCNCC1 [AMD3100, 1,1′-[1,4-phenylenebis(methylene)]bis-1,4,8,11-tetraazacyclo-tetradecane]
percentage of CD34+, c-Kit+, Thy-1+ and Sca1+ cells in peripheral blood ([1]; listed as AMD): significantly increase
percentage of CD34+, c-Kit+, Thy-1+ and Sca1+ cells in peripheral blood ([1]; listed as plerixafor): significantly increased
mononuclear/inflammatory cellular infiltration in portal areas (H&E) ([2]; listed as AMD): the number of infiltrating cells were less
mononuclear/inflammatory cellular infiltration in portal areas (H&E) ([2]; listed as plerixafor): the number of infiltrating cells was reduced
absolute number of c-Kit+, CD133+ or Lin− and Thy1+c-Kit+CD133+ triple positive cells in peripheral blood ([3]; compared to saline or G-CSF treated animals): significantly increased
recipient survival / kidney allograft acceptance [4]: did not prolong the recipient survival
skin xenograft survival [5]: did not prolong the xenograft survival
IC50 [6]: 51 ± 17 nM
skin allograft survival / acceptance [7]: did not significantly prolong the allograft survival
recipient survival [8]: did not significantly prolong recipient survival
recipient survival / liver allograft acceptance ([9]; listed as AMD): did not significantly prolong the recipient survival
recipient survival / liver allograft acceptance ([9]; listed as plerixafor): did not significantly prolong recipient survival

C=CC[C@@H]1/C=C(\C)C[C@H](C)C[C@H](OC)[C@H]2O[C@@](O)(C(=O)C(=O)N3CCCC[C@H]3C(=O)O[C@H](/C(C)=C/[C@@H]3CC[C@@H](O)[C@H](OC)C3)[C@H](C)[C@@H](O)CC1=O)[C@H](C)C[C@@H]2OC [Tacrolimus]
mononuclear/inflammatory cellular infiltration in portal areas (H&E) [2]: the number of infiltrating cells was reduced
mononuclear/inflammatory cellular infiltration in portal areas (H&E) ([2]; listed as FK-506): the number of infiltrating cells were less
c-Kit+ and CD133+ cells in peripheral blood ([3]; low-dose FK (0.1 mg/kg)): significantly increases
recipient survival / kidney allograft acceptance [4]: did not prolong the recipient survival
skin xenograft survival [5]: did not prolong the xenograft survival
skin allograft survival / acceptance [7]: did not significantly prolong the allograft survival
recipient survival [8]: did not significantly prolong recipient survival
recipient survival / liver allograft acceptance ([9]; listed as FK-506): did not significantly prolong the recipient survival
recipient survival / liver allograft acceptance ([9]; listed as tacrolimus): did not significantly prolong recipient survival
survival of one of five recipients [9]: 4 months
survival of one of five recipients ([9]; 0.1 mg/kg/day): more than 1 months
